In PubChem BioAssay AID1919004 (Molecular Pharmacology Branch, DTP, NCI, 2023):
pIC50: −log10 of the molar value.

Tested on: 883617-216-R-J1-PDC complex spheroids, growth, % test/control
Assay: Anticancer human tumor 883617-216-R-J1-PDC patient-derived bladder carcinoma cell line growth inhibition [AhR]
Conditions: for pIC50: curve of first compound; for viability, T/C: stronger effect = lower value
Outline: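 Complex tumor spheroids co-cultured with HUVEC and human MSC stroma; AhR antagonists tested in combination with standard-of-care and investigational agents. Top concentration at or near clinical Cmax (else 10 microM), half-log dilutions; growth expressed as percent test/control.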

[1] = second compound 0.1 µM, first compound 0.0316 µM
[2] = second compound 0.1 µM, first compound 0.1 µM
[3] = second compound 0.316 µM, first compound 0.0316 µM
[4] = second compound 0.316 µM, first compound 0.1 µM
[5] = second compound 1 µM, first compound 0.0316 µM
[6] = second compound 1 µM, first compound 0.1 µM
[7] = second compound 3.16 µM, first compound 0.0316 µM
[8] = second compound 3.16 µM, first compound 0.1 µM
[9] = second compound 10 µM, first compound 0.0316 µM
[10] = second compound 10 µM, first compound 0.1 µM
[11] = second compound 0.1 µM, first compound 0.000316 µM
[12] = second compound 0.1 µM, first compound 0.001 µM
[13] = second compound 0.1 µM, first compound 0.00316 µM
[14] = second compound 0.1 µM, first compound 0.01 µM
[15] = second compound 0.316 µM, first compound 0.000316 µM
[16] = second compound 0.316 µM, first compound 0.001 µM
[17] = second compound 0.316 µM, first compound 0.00316 µM
[18] = second compound 0.316 µM, first compound 0.01 µM
[19] = second compound 1 µM, first compound 0.000316 µM
[20] = second compound 1 µM, first compound 0.001 µM
[21] = second compound 1 µM, first compound 0.00316 µM
[22] = second compound 1 µM, first compound 0.01 µM
[23] = second compound 3.16 µM, first compound 0.000316 µM
[24] = second compound 3.16 µM, first compound 0.001 µM
[25] = second compound 3.16 µM, first compound 0.00316 µM
[26] = second compound 3.16 µM, first compound 0.01 µM
[27] = second compound 10 µM, first compound 0.000316 µM
[28] = second compound 10 µM, first compound 0.001 µM
[29] = second compound 10 µM, first compound 0.00316 µM
[30] = second compound 10 µM, first compound 0.01 µM
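Note: exposure lasted 7 days after dosing on day 3 of spheroid growth.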

`O=C(C=Cc1cccc(S(=O)(=O)Nc2ccccc2)c1)NO` + CC(CO)NC(=O)c1cc(-c2ccc(Cl)cc2)nn(-c2cnn(C)c2)c1=O was tested. Which pIC50 (second compound 0.1 µM) did it give?
The pIC50 was 5.45.

And the pIC50 (second compound 0.316 µM)?
Its pIC50 is 5.46.

What about the pIC50 (second compound 1 µM) of the same compound?
Its pIC50 is 6.10.

What about the pIC50 (second compound 3.16 µM) of the same compound?
The pIC50 was 5.82.

And the pIC50 (second compound 10 µM)?
Its pIC50 is 5.74.

What about the viability, T/C [1] of the same compound?
The viability, T/C was 88.5%.

And the viability, T/C [2]?
The viability, T/C was 96.9%.

What about the viability, T/C (second compound 0.1 µM, first compound 0.316 µM) of the same compound?
Its viability, T/C is 78.1%.

And the viability, T/C (second compound 0.1 µM, first compound 1 µM)?
Its viability, T/C is 86.6%.

What about the viability, T/C (second compound 0.1 µM, first compound 3.16 µM) of the same compound?
Its viability, T/C is 55%.

And the viability, T/C (second compound 0.1 µM, first compound 10 µM)?
Its viability, T/C is 7.64%.

What about the viability, T/C [3] of the same compound?
Its viability, T/C is 95.2%.

And the viability, T/C [4]?
The viability, T/C was 87.6%.

What about the viability, T/C (second compound 0.316 µM, first compound 0.316 µM) of the same compound?
Its viability, T/C is 85.7%.

And the viability, T/C (second compound 0.316 µM, first compound 1 µM)?
Its viability, T/C is 105%.

And the viability, T/C (second compound 0.316 µM, first compound 3.16 µM)?
Its viability, T/C is 54.7%.

And the viability, T/C (second compound 0.316 µM, first compound 10 µM)?
Its viability, T/C is 1.72%.

And the viability, T/C [5]?
The viability, T/C was 75.3%.

And the viability, T/C [6]?
Its viability, T/C is 62.7%.

What about the viability, T/C (second compound 1 µM, first compound 0.316 µM) of the same compound?
Its viability, T/C is 113%.

And the viability, T/C (second compound 1 µM, first compound 1 µM)?
Its viability, T/C is 41.5%.

What about the viability, T/C (second compound 1 µM, first compound 3.16 µM) of the same compound?
Its viability, T/C is 41.6%.

What about the viability, T/C (second compound 1 µM, first compound 10 µM) of the same compound?
The viability, T/C was 1.68%.

And the viability, T/C [7]?
Its viability, T/C is 104%.

And the viability, T/C [8]?
Its viability, T/C is 66%.

What about the viability, T/C (second compound 3.16 µM, first compound 0.316 µM) of the same compound?
Its viability, T/C is 67.6%.

What about the viability, T/C (second compound 3.16 µM, first compound 1 µM) of the same compound?
Its viability, T/C is 69.5%.

What about the viability, T/C (second compound 3.16 µM, first compound 3.16 µM) of the same compound?
The viability, T/C was 36.6%.

And the viability, T/C (second compound 3.16 µM, first compound 10 µM)?
The viability, T/C was 6.34%.

What about the viability, T/C [9] of the same compound?
Its viability, T/C is 101%.

What about the viability, T/C [10] of the same compound?
The viability, T/C was 89.5%.

What about the viability, T/C (second compound 10 µM, first compound 0.316 µM) of the same compound?
Its viability, T/C is 101%.

What about the viability, T/C (second compound 10 µM, first compound 1 µM) of the same compound?
The viability, T/C was 54%.

And the viability, T/C (second compound 10 µM, first compound 3.16 µM)?
The viability, T/C was 40.9%.

What about the viability, T/C (second compound 10 µM, first compound 10 µM) of the same compound?
Its viability, T/C is 1.34%.

Which results are given for `CC[C@@]1(O)C(=O)OCc2c1cc1n(c2=O)Cc2cc3c(CN(C)C)c(O)ccc3nc2-1` + Cc1ccccc1N=Nc1ccc(NC(=O)c2ccnn2C)c(C)c1?
pIC50 (second compound 0.1 µM): < 7.00; pIC50 (second compound 0.316 µM): < 7.00; pIC50 (second compound 1 µM): < 7.00; pIC50 (second compound 3.16 µM): < 7.00; pIC50 (second compound 10 µM): < 7.00; viability, T/C [11]: 90.7%; viability, T/C [12]: 85%; viability, T/C [13]: 86.3%; viability, T/C [14]: 80.3%; viability, T/C [1]: 76.9%; viability, T/C [2]: 71.1%; viability, T/C [15]: 86.8%; viability, T/C [16]: 86.6%; viability, T/C [17]: 76.2%; viability, T/C [18]: 73%; viability, T/C [3]: 70%; viability, T/C [4]: 62%; viability, T/C [19]: 82.5%; viability, T/C [20]: 80.3%; viability, T/C [21]: 79.4%; viability, T/C [22]: 71.4%; viability, T/C [5]: 66%; viability, T/C [6]: 69.6%; viability, T/C [23]: 70%; viability, T/C [24]: 79.1%; viability, T/C [25]: 78.6%; viability, T/C [26]: 74.7%; viability, T/C [7]: 70.7%; viability, T/C [8]: 71.3%; viability, T/C [27]: 74.2%; viability, T/C [28]: 80.7%; viability, T/C [29]: 78%; viability, T/C [30]: 70.9%; viability, T/C [9]: 75.6%; viability, T/C [10]: 73%

Which results are given for `Cn1ncnc1C1c2n[nH]c(=O)c3cc(F)cc(c23)NC1c1ccc(F)cc1` (stereo not given) + CC(CO)NC(=O)c1cc(-c2ccc(Cl)cc2)nn(-c2cnn(C)c2)c1=O?
pIC50 (second compound 0.1 µM): < 7.00; pIC50 (second compound 0.316 µM): < 7.00; pIC50 (second compound 1 µM): < 7.00; pIC50 (second compound 3.16 µM): < 7.00; pIC50 (second compound 10 µM): < 7.00; viability, T/C [11]: 72.7%; viability, T/C [12]: 96.6%; viability, T/C [13]: 77.3%; viability, T/C [14]: 57.7%; viability, T/C [1]: 55.6%; viability, T/C [2]: 93%; viability, T/C [15]: 90.4%; viability, T/C [16]: 92.8%; viability, T/C [17]: 78.6%; viability, T/C [18]: 75.8%; viability, T/C [3]: 86%; viability, T/C [4]: 98.7%; viability, T/C [19]: 59.7%; viability, T/C [20]: 92.4%; viability, T/C [21]: 75.1%; viability, T/C [22]: 59.8%; viability, T/C [5]: 87.6%; viability, T/C [6]: 89.9%; viability, T/C [23]: 77.3%; viability, T/C [24]: 51%; viability, T/C [25]: 123%; viability, T/C [26]: 82.8%; viability, T/C [7]: 50.2%; viability, T/C [8]: 69.2%; viability, T/C [27]: 78.6%; viability, T/C [28]: 68.8%; viability, T/C [29]: 70.6%; viability, T/C [30]: 72%; viability, T/C [9]: 55.7%; viability, T/C [10]: 80.9%
